In patent US20050014765A1, “Aryl-heteroaromatic products, compositions comprising them and use” (Aventis Pharma S.A., priority 2003, published 2005):
Counter-ions that a name gives are not always drawn.

Tests used:
HCT116 cells = test: Inhibition of proliferation of the HCT116 human colon tumor line ([14C]-thymidine incorporation); type: cell-based; conditions: HCT-116, 48 hours incubation at 37° C., read-out: Inhibition of HCT116 proliferation IC 50
Description: Test for Determining the Inhibition of Proliferation of the HCT116 Human Colon Tumor Line
The proliferation of HCT116 cells is evaluated by mesuring the incorporation of [^14C]-thymidine in the following way. The HCT166 cells (from the ATCC) are cultured in a DMEM medium (Gibco) which contains 10% of fetal calf serum and antibiotics (1% penicillin, 1% streptomycin). To perform the proliferation test, the cells are seeded into 96-well cytostar microplates (Amersham) at the rate of 5000 cells per well. The [^14C]-thymidine (0.1 μCi/well) and the products to be evaluated are subsequently added. Variable concentrations of products up to 10 μM are used; the DMSO (solvent used to dissolve the products) should not exceed 0.5% in the medium. 48 hours after incubation at 37° C., the radioactivity incorporated into the cells is measured by counting the plate in a Tri-Lux counter (Wallac). The IC50 is defined as the concentration of product which reduces the radioactivity by 50% compared with an untreated control. A product with an IC50 of less than 10 μm is regarded as cytotoxic.

[1] = target: T1, Tubulin purified from pig brains (Sus scrofa, UniProt P02550+P02554); test: Assessment of the inhibition of tubulin polymerization (turbidimetry at 350 nm); type: biochemical; conditions: concentration which inhibits the rate of polymerization by 50%; tubulin 1 mg/ml, 37° C.; read-out: Inhibition of tubulin polymerization IC 50
T1 construct: Tubulin is purified from pig brains according to published methods; from tissue; host or cells: pig brain
Description: Assessment of the Inhibition of Tubulin Polymerization
Tubulin is purified from pig brains according to published methods (Shelanski et al., 1973, Proc. Natl. Acad. Sci. USA, 70, 765-768. Weingarten et al., 1975, Proc. Natl. Acad. Sci. USA, 72, 1858-1862). Briefly, the brains are ground and centrifuged in an extraction buffer. The tubulin, present in the extract supernatant is subjected to two successive cycles of polymerization at 37° C. and depolymerization at 4° C., before being separated from the MAPs (Microtubule Associated Proteins) by chromatography on a phosphocellulose P11 column (Whatman). The tubulin thus isolated is more than 95% pure. It is stored in a buffer known as RB/2 30% glycerol, the composition of which is 50 mM MES-NaOH [2-(N-morpholino)ethanesulfonic acid], pH 6.8; 0.25 mM MgCl2; 0.5 mM EGTA; 30% (v/v) glycerol, 0.2 mM GTP (guanosine 5′-triphosphate).
The polymerization of the tubulin into microtubules is monitored by turbidimetry as follows: the tubulin is adjusted to a concentration of 10 μm (1 mg/ml) in the RB/2 30% glycerol buffer, to which are added 1 mM GTP and 6 mM MgCl2. The polymerization is initiated by increasing the temperature from 6° C. to 37° C. in a cuvette with a 1 cm optical pathlength, placed in a UVIKON 931 spectrophotometer (Kontron) equipped with a thermostatically-regulated cuvette holder. The increase in turbidity of the solution is monitored at 350 nm.
The products are dissolved at 10 mM in DMSO and added at variable concentrations (0.5 to 10 μm) to the tubulin solution before polymerization. The IC50 is defined as the concentration of the product which inhibits the rate of polymerization by 50%.

T1 sequence (P02550 whole entry): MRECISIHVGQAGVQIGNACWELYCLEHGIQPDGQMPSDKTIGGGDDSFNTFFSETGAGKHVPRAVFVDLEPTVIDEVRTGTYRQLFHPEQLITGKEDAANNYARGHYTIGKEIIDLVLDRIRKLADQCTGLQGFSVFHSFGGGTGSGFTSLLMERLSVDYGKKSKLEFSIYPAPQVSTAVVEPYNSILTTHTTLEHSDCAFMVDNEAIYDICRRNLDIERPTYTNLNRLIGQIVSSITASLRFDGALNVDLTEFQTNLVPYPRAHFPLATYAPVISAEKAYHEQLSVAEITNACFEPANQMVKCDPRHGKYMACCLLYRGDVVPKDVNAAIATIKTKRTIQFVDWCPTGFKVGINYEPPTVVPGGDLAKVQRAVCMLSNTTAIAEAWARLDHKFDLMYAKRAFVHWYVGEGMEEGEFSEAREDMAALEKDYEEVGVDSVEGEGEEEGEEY
T1 sequence (P02554 whole entry): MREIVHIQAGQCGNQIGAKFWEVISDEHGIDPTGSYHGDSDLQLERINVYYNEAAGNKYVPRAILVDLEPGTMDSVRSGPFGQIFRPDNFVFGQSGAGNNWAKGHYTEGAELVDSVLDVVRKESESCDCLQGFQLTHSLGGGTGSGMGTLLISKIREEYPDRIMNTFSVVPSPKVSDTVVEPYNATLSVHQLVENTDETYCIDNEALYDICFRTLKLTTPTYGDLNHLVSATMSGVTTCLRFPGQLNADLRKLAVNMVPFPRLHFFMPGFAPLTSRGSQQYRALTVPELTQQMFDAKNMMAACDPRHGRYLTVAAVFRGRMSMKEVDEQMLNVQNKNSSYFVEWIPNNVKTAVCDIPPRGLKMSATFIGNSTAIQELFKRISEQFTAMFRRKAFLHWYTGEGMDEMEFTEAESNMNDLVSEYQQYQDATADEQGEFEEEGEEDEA

SMILES | IC50 (HCT116 cells) [nM] | IC50 [1] [nM]
COc1cc(OC)cc(N2CCN(C(=O)c3c(-c4ccccc4)ccn3C)CC2)c1 [Example 40, [4-(3,5-Dimethoxyphenyl)piperazin-1-yl](1-methyl-3-phenyl-1H-pyrrol-2-yl)-methanone hydrochloride] | 275 | 11200
COC(=O)CCn1cc(C(=O)N2CCN(c3cccc(Cl)c3)CC2)c(-c2ccccc2)c1 [Example 34, Methyl 3-{3-[4-(3-chlorophenyl)piperazin-1-ylcarbonyl]-4-phenylpyrrol-1-yl}-propionate] | 749 | 2160
COc1cc(OC)cc(N2CCN(C(=O)c3cn(Cc4cccnc4)cc3-c3ccccc3)CC2)c1 [Example 48, [4-(3,5-Dimethoxyphenyl)piperazin-1-yl][1-(pyridin-3-yl)methyl-4-phenyl-1H-pyrrol-3-yl]methanone] | 51.1 | 750
COc1cc(OC)cc(N2CCN(C(=O)c3cn(CCCC(=O)O)cc3-c3ccccc3)CC2)c1 [Example 46, 4-{3-[4-(3,5-Dimethoxyphenyl)piperazin-1-yl]carbonyl-4-phenyl-1H-pyrrol-1-yl}-butanoic acid] | 6380 | 4350
NC(=O)c1cccc(N2CCN(C(=O)c3[nH]c(C(F)(F)F)nc3-c3ccccc3)CC2)c1 [Example 54, 3-[4-(2-Trifluoromethyl-4-phenyl-1H-imidazol-5-ylcarbonyl)piperazin-1-yl]-benzamide] | 1890 | 1080
COc1cc(OC)cc(N2CCN(C(=O)c3cn(C(C)=O)cc3-c3ccccc3)CC2)c1 [Example 41, 1-{3-[4-(3,5-Dimethoxyphenyl)piperazin-1-yl-carbonyl]-4-phenylpyrrol-1-yl}-ethanone] | 123 | 1330
O=C(c1cc[nH]c1-c1ccccc1)N1CCN(c2cccc(CO)c2)CC1 [Example 86, [4-(3-Hydroxymethylphenyl)piperazin-1-yl](2-phenyl-1H-pyrrol-3-yl)methanone] |  | 6410
COCCNc1nc(-c2ccccc2)c(C(=O)N2CCN(c3cc(OC)cc(OC)c3)CC2)s1 [Example 91, [4-(3,5-Dimethoxyphenyl)piperazin-1-yl][2-(2-methoxyethyl)amino-4-phenylthiazol-5-yl]methanone] |  | 89
CS(=O)(=O)c1nc(-c2ccccc2)c(C(=O)N2CCN(c3cccc(C(N)=O)c3)CC2)[nH]1 [Example 71, 3-[4-(2-Methylsulfonyl-4-phenyl-1H-imidazol-4-ylcarbonyl)piperazin-1-yl]benzamide] |  | 13900

Continued by falling IC50 [1], values first:

IC50 (HCT116 cells) [nM] | IC50 [1] [nM] | SMILES
114 | 9500 | COc1cc(OC)cc(N2CCN(C(=O)c3nc(SC)n(C)c3-c3ccccc3)CC2)c1 [Example 24, [4-(3,5-Dimethoxyphenyl)piperazin-1-yl](N-methyl-2-methylsulfanyl-5-phenyl-1H-imidazol-4-yl)methanone]
90.9 | 2900 | N#Cc1cccc(N2CCN(C(=O)c3cncn3-c3ccccc3)CC2)c1 [Example 13, [4-(3-Cyanophenyl)piperazin-1-yl](1-phenyl-1H-imidazol-5-yl)methanone]
1.6 | 1290 | COc1cc(OC)cc(N2CCN(C(=O)c3sc(N)nc3-c3ccccc3)CC2)c1 [Example 42, (2-Amino-4-phenylthiazol-5-yl)[4-(3,5-dimethoxyphenyl)piperazin-1-yl]-methanone]
7.4 | 1200 | N#Cc1cccc(N2CCN(C(=O)c3[nH]cnc3-c3ccccc3)CC2)c1 [Example 14, [4-(3-Cyanophenyl)piperazin-1-yl](4-phenyl-1H-imidazol-5-yl)methanone]
 | 582 | N#Cc1cccc(N2CCN(C(=O)c3cn(CCO)cc3-c3ccccc3)CC2)c1 [Example 87, 3-[4-(1-Hydroxyethyl-4-phenyl-1H-pyrrol-3-ylcarbonyl)piperazin-1-yl]-benzonitrile]
13 | 480 | O=C(c1[nH]cnc1-c1ccccc1)N1CCN(c2cccc(CO)c2)CC1 [Example 68, [4-(3-Hydroxymethylphenyl)piperazin-1-yl](4-phenyl-1H-imidazol-5-yl)methanone]
